The record followed here is ChEMBL document CHEMBL1147536, “Synthesis and biochemical properties of E-ring modified luotonin A derivatives” (2004).

What all share (assay type): functional
Assay [1] deals with Saccharomyces cerevisiae. The assay can be described thus: Percent inhibitory activity of 50 uM of compound against growth of Saccharomyces cerevisiae transfected with human topoisomerase-1 in medium containing raffinose.
Assay [2] concerns Saccharomyces cerevisiae. Briefly: Percent inhibitory activity of 50 uM of compound against growth of Saccharomyces cerevisiae transfected with human topoisomerase-1 in medium containing galactose.
Assay [3] relates to Saccharomyces cerevisiae. Briefly: Percent inhibitory activity of 100 uM of compound against growth of Saccharomyces cerevisiae transfected with human topoisomerase-1 in medium containing raffinose.
Assay [4] relates to Saccharomyces cerevisiae. The assay can be described thus: Percent inhibitory activity of 100 uM of compound against growth of Saccharomyces cerevisiae transfected with human topoisomerase-1 in medium containing galactose.
Assay [5] relates to Saccharomyces cerevisiae. The assay can be described thus: Percent inhibitory activity of 1 uM of compound against growth of Saccharomyces cerevisiae transfected with human topoisomerase-1 in medium containing galactose.
For assay [6], the system named is Saccharomyces cerevisiae. The assay can be described thus: Percent inhibitory activity of 10 uM of compound against growth of Saccharomyces cerevisiae transfected with human topoisomerase-1 in medium containing raffinose.
Assay [7] relates to Saccharomyces cerevisiae. The assay can be described thus: Percent inhibitory activity of 1 uM of compound against growth of Saccharomyces cerevisiae transfected with human topoisomerase-1 in medium containing raffinose.
Assay [8] has as its system Saccharomyces cerevisiae. Briefly: Percent inhibitory activity of 10 uM of compound against growth of Saccharomyces cerevisiae transfected with human topoisomerase-1 in medium containing galactose.
Assay [9] deals with Saccharomyces cerevisiae. The assay can be described thus: Percent inhibitory activity of 25 uM of compound against growth of Saccharomyces cerevisiae transfected with human topoisomerase-1 in medium containing raffinose.
Assay [10] has as its system Saccharomyces cerevisiae. Briefly: Percent inhibitory activity of 25 uM of compound against growth of Saccharomyces cerevisiae transfected with human topoisomerase-1 in medium containing galactose.
The subject of assay [11] is Saccharomyces cerevisiae. The assay can be described thus: Percent inhibitory activity of 5 uM of compound against growth of Saccharomyces cerevisiae transfected with human topoisomerase-1 in medium containing raffinose.
The test system of assay [12] is Saccharomyces cerevisiae. Briefly: Percent inhibitory activity of 5 uM of compound against growth of Saccharomyces cerevisiae transfected with human topoisomerase-1 in medium containing galactose.
Assay [13] deals with Saccharomyces cerevisiae. The assay can be described thus: Percent inhibitory activity of 0.75 uM of compound against growth of Saccharomyces cerevisiae transfected with human topoisomerase-1 in medium containing raffinose.
Assay [14] relates to Saccharomyces cerevisiae. Briefly: Percent inhibitory activity of 1.5 uM of compound against growth of Saccharomyces cerevisiae transfected with human topoisomerase-1 in medium containing raffinose.
The test system of assay [15] is Saccharomyces cerevisiae. Briefly: Percent inhibitory activity of 0.75 uM of compound against growth of Saccharomyces cerevisiae transfected with human topoisomerase-1 in medium containing galactose.
In assay [16] the test system is Saccharomyces cerevisiae. Briefly: Percent inhibitory activity of 1.5 uM of compound against growth of Saccharomyces cerevisiae transfected with human topoisomerase-1 in medium containing galactose.
The subject of assay [17] is Saccharomyces cerevisiae. The assay can be described thus: Percent inhibitory activity of 15 uM of compound against growth of Saccharomyces cerevisiae transfected with human topoisomerase-1 in medium containing galactose.
In assay [18] the test system is Saccharomyces cerevisiae. The assay can be described thus: Percent inhibitory activity of 15 uM of compound against growth of Saccharomyces cerevisiae transfected with human topoisomerase-1 in medium containing raffinose.
In assay [19] the test system is Saccharomyces cerevisiae. Briefly: Percent inhibitory activity of 0.5 uM of compound against growth of Saccharomyces cerevisiae transfected with human topoisomerase-1 in medium containing galactose.
The test system of assay [20] is Saccharomyces cerevisiae. The assay can be described thus: Percent inhibitory activity of 0.5 uM of compound against growth of Saccharomyces cerevisiae transfected with human topoisomerase-1 in medium containing raffinose.

As for `O=c1c2c(nc3n1Cc1cc4ccccc4nc1-3)CCCC2`, the Inhibition (as a rule, the percentage by which the read-out fell short of the control) in assay [1] turned out to be 3%; in assay [2], 46%; in [3] it was 18%; in assay [4], 51%.

As for `O=c1c2cccc(O)c2nc2n1Cc1cc3ccccc3nc1-2`, the Inhibition in assay [1] is reported as 0%; in [2] it was 9%; in assay [3], 7%; in assay [4], 13%.

Take `Cc1ccc2nc3n(c(=O)c2c1)Cc1cc2ccccc2nc1-3`: the Inhibition in assay [5] turned out to be 14%; in [6] it was 39%; in assay [7], 8%; in assay [8], 49%.

In the case of `O=c1c2ccc(F)cc2nc2n1Cc1cc3ccccc3nc1-2`, the Inhibition was found to be 14% in assay [1], 73% in assay [2], 0% in [9] and 40% in assay [10].

In the case of `O=c1c2cc(F)c(F)cc2nc2n1Cc1cc3ccccc3nc1-2`, the Inhibition is 0% in assay [5], 53% in assay [6], 26% in assay [7] and 0% in assay [8].

In the case of `COc1cccc2c(=O)n3c(nc12)-c1nc2ccccc2cc1C3` [16-METHOXYLUOTONIN A], the Inhibition in assay [11] was determined as 35%; in assay [12], 0%; in assay [9], 47%; in [10], 2%.

With `CC[C@@]1(O)C(=O)OCc2c1cc1n(c2=O)Cc2cc3ccccc3nc2-1` [CAMPTOTHECIN], the Inhibition in assay [13] is 10%; in assay [14], 19%; in assay [15] it was 40%; in assay [16], 68%; in [17] it was 78%; in [18], 18%.

For the compound `O=c1c2ccccc2nc2n1Cc1cc3ccccc3nc1-2` [LUOTONIN A], the Inhibition in [5] is recorded as 36%; in assay [19], 23%; in assay [6], 35%; in assay [7], 0%; in assay [8], 56%; in assay [20], 0%.
